From patent US12440466B2, “Fatty acid derivatives for treating non-alcoholic steatohepatitis” (BASF AS, priority 2017, dated 2025)
Marks after values point to notes of the source that are not given here.

Columns and labels:
TIMP-1a mRNA = assay: Hepatic TIMP-1a mRNA expression by qPCR, CDAA/high-fat diet mouse model; assay type: in vivo; conditions: CDAA/high-fat fed mice; Compound A 0.3 mmol/kg bw/day oral; GLP-1a 0.4 mg/kg once weekly i.p.; alone or combined
Description: Mice were fed either choline-sufficient (CS) or choline deficient high-fat diets (31% total calories; “CDAA/high-fat”). The NASH inducing diet was instigated 6 weeks prior to the commencement of treatment in order to design the study as a treatment/reversal set-up rather than prophylaxis.
Studies were performed in male C56BL/6J mice (9 weeks old). Mice were divided into 6 experimental groups (n=9 per group) containing either CS or CDAA/high-fat diets, as described above. The NASH inducing CDAA/high fat diet was instigated 6 weeks prior to the commencement of treatment in order to assess treatment/reversal rather than prophylaxis. […] Compound A was administered orally as admix to the high-fat diet whilst GLP-1 agonist was delivered via intraperitoneal injection (i.p.). Fibrosis, inflammation and metabolism related transcripts levels were measured by quantitative real-time polymerase chain reaction (qPCR) in isolated liver tissue.

STAM (model) mice = assay: NAFLD activity score (NAS) in streptozotocin/high-fat diet NASH model (STAM model); assay type: in vivo, mouse; conditions: 6 weeks treatment, Compound A 37 mg/kg/day oral gavage, telmisartan positive control
Source text: In Biological Example 8, pathogen-free 15-day-pregnant C57BL/6 mice were obtained from Charles River Laboratories in Japan Inc. (Kanagawa, Japan). NASH was established in male mice by a single subcutaneous injection of streptozotocin (STZ) (Sigma, USA) after birth and feeding with a high fat diet (HFD; CLEA) Japan, Japan) ad libitum after 4 weeks of age (day 28±2). Mice were randomised into 3 groups of 8 mice at 6 weeks of age the day before the start of treatment: vehicle (saline), Compound A and telmisartan (positive control). Treatment with Compound A at a dose of 37 mg/kg bw per day via oral gavage in conjunction with a high-fat diet was given for 6 weeks before sacrifice. NAFLD activity score (NAS) was calculated according to standardised criteria and fibrosis area was assessed via Sirius Red staining.

inflammatory genes = assay: Hepatic inflammatory gene expression in ob/ob AMLN mice; assay type: in vivo, mouse; conditions: 4 weeks, Compound A 112 mg/kg
Description: (§1) Obese diet-induced B6.V-Lepob/Jrj mice (ob/ob) are consistently fibrosis (liver) prone when cholesterol (2%), 40% fat (containing 18% trans-fatty acids) and 20% fructose are added to a high-caloric diet (i.e., AMLN high-fat diet). ob/ob mice on AMLN diet (termed ‘ob/ob AMLN mice’) develop steatohepatitis and fibrosis within a shorter timeframe ([…]) compared with wild-type C57BL/6 mice (AMLN mice) fed the same diet. ob/ob AMLN mice provide an obese diet-induced model of NASH that also allows the study of effects on glycemic control. Development of NASH in the ob/ob AMLN model is confirmed by biopsy.
In Biological Examples 10-12, 15, and 19, studies were performed in male ob/ob mice (5 weeks old) fed an AMLN high-fat diet for 15 weeks, then randomized into 3 groups (n=10 per group) to receive either 112 mg/kg bw per day of Compound A via diet, 30 mg/kg bw per day pioglitazone via diet or no treatment (vehicle) for a further 4 weeks. An oral glucose tolerance test (OGTT) was performed at week 3. Hepatic fibrosis was assessed via measurements of hepatic fibrogenic/fibrolytic gene expression by RNA sequencing at 4 weeks.

CDAA/high-fat fed mice = assay: Hepatic fibrosis by Sirius Red (SR) morphometry, CDAA/high-fat diet mouse model; assay type: in vivo
Description: In Biological Examples 1-7, studies were performed in male C56BL/6J mice (9 weeks old). Mice were fed either choline-sufficient (CS) or choline deficient high-fat diets (31% total calories; “CDAA/high-fat”). The NASH inducing diet was instigated 6 weeks prior to the commencement of treatment in order to design the study as a treatment/reversal set-up rather than prophylaxis.
In Biological Examples 1-5, mice were divided into 6 experimental groups (n=9 per group) and fed either CS or CDAA/high-fat diets. […] Hepatic fibrosis was assessed by both measurement of hydroxyproline (HYP) content and Sirius Red (SR) morphometry. Fibrosis, inflammation and metabolism related transcripts levels were measured by quantitative real-time polymerase chain reaction (qPCR).
In order to more accurately quantify the amount location and functional relevance of the hepatic fibrosis, Sirius Red (SR) morphometry was performed. In contrast to examples 1 and 2 where biochemical assessment of hydroxyproline (HYP) content measuring collagen in the large vessels was used, SR morphometry quantifies the more functionally relevant sinusoidal collagen deposits. 10 areas per slide were measured using 100× magnification.

ob/ob AMLN mice [1] = assay: Plasma ALT and AST (hepatocellular damage) in ob/ob AMLN mice; assay type: in vivo, mouse; conditions: 8 weeks
Description: as §1
(§2) In Biological Examples 10, 13-14, and 16-18, studies were performed in male ob/ob mice (5 weeks old) fed an AMLN high-fat diet for 18 weeks, then randomized into 6 groups (n=10 per group) to receive either Compound A (at 3 different daily doses, 45 mg/kg, 90 mg/kg or 135 mg/kg) via diet, 30 mg/kg bw per day obeticholic acid (OCA) via diet, or no treatment (vehicle) for a further 8 weeks. Assessment of NASH related parameters and fibrosis was made at study end by quantitative immune histochemistry (IHC) measurements.
To assess the effects of Compound A and pioglitazone on hepatocellular injury or damage in ob/ob AMLN mice, plasma alanine aminotransferase (ALT) and aspartate transaminase (AST) were measured after 8 weeks of administration.

ob/ob AMLN mice [2] = assay: Hepatic steatosis and hepatic cholesterol content in ob/ob AMLN mice; assay type: in vivo, mouse; conditions: 8 weeks, Compound A 45-135 mg/kg, OCA 30 mg/kg
Description: as §1, §2

[3] = pioglitazone 30 mg/kg, data not shown
[4] = pioglitazone 30 mg/kg, vs vehicle

CC/C=C\C/C=C\C/C=C\C/C=C\C/C=C\CCCCOC(CC)C(=O)O (stereo not drawn) [Compound A, 2-((5Z,8Z,11Z,14Z,17Z)-icosa-5,8,11,14,17-pentaenyloxy)butanoic acid]
TIMP-1a (relative mRNA expression) (TIMP-1a mRNA): 2***
Hepatocellular ballooning (STAM (model) mice): 1
Lobular inflammation (STAM (model) mice): 0.88
NAS score (mean ± SD) (STAM (model) mice): 2.3 ± 1.5
Steatosis (STAM (model) mice): 0.12
MAC-2 expression (inflammatory genes; data not shown): Significant reductions
MCP-1 transcript levels (inflammatory genes; [3]): Neither compound significantly reduced
interleukin (IL)-1β transcript levels (inflammatory genes; [3]): Neither compound significantly reduced
CCR2 expression (inflammatory genes; [4]): Significant reductions
CD14 expression (inflammatory genes; [4]): Significant reductions
CD68 expression (inflammatory genes; [4]): Significant reductions
transcript levels of TGF-β1 (inflammatory genes; [4]): reduced
transcript levels of TGF-β1 receptor (TGFRβ) (inflammatory genes; [4]): reduced
Galectin-3 (Gal-3) levels (inflammatory genes; vs vehicle): significantly reduced
Fibrosis area (mean %) (CDAA/high-fat fed mice; HD 0.3 mmol/kg bw per day): 1.56* %
Fibrosis area (mean %) (CDAA/high-fat fed mice; LD 0.15 mmol/kg bw/day): 0.76*** %
plasma ALT (ob/ob AMLN mice [1]; Compound A 90 mg/kg, p<0.01): marked and significant reduction
plasma AST (ob/ob AMLN mice [1]; Compound A 90 mg/kg, p<0.05): significantly reduced
plasma ALT (ob/ob AMLN mice [1]; Compound A 135 mg/kg, p<0.001): marked and significant reduction
plasma AST (ob/ob AMLN mice [1]; Compound A 135 mg/kg, p<0.01): significantly reduced
steatosis (percent area or total lipid content) (ob/ob AMLN mice [2]): significantly reduced
